Results reported in patent US12702643B2, “Ion-exchange composition with water-soluble mucoadhesive polymers” (Fertin Pharma A/S, priority 2019, dated 2026).

Settings: increase of nicotine concentration from 100 microgram/mL to 14,000 microgram/mL

CN1CCCC1c1cccnc1 (stereo not shown) [nicotine]
Permeability of nicotine across the buccal mucosa: decrease of about a factor of two
